The source of these data is patent publication US11642337B2, “Therapeutic agent for mental retardation or autism” (TOKYO METROPOLITAN INSTITUTE OF MEDICAL SCIENCE, priority 2017, dated 2023).

Common to all, as to assay type: in vivo, mouse
For experiment [1], the system named is mice to which kainic acid was administered during the neonatal period. Kind of experiment: Three-chamber test in mice given kainic acid in the neonatal period (autism-like abnormality of social behavior). The settings on record: mice given kainic acid 1.5 mg/kg one week after birth, tested two months later; single administration 40 mg/kg, i.p.
A further experiment concerns Tsc2^+/− mice. The experiment can be described thus: Contextual fear discrimination test in Tsc2+/- mice (memory impairment of tuberous sclerosis). Particulars: 40 mg/kg orally, single administration six hours before FS, measured on the next day in the same box, vs vehicle group. How it is done:
Tsc2^+/− mice were prepared by breeding/crossing according to a known method (Kobayashi, T., et al., Renal carcinogenesis, hepatic hemangiomatosis, and embryonic lethality caused by a germ-line Tsc2 mutation in mice. Cancer Res, 1999. 59(6): p. 1206-11).
A contextual fear discrimination test (Auerbach, B. D., E. K. Osterweil, and M. F. Bear, Mutations causing syndromic autism define an axis of synaptic pathophysiology. Nature, 2011. 480(7375): p. 63-8.) was carried out to measure the contextual fear memory of mice. More specifically, each mouse was placed in a cage for application of foot shock (FS), and FS was applied to the mouse. On the next day, the mouse was returned to the same cage (familiar condition), and the freeze time was measured (FIG. 1a). In order to investigate the effect of tipifarnib or lonafarnib (which may be hereinafter simply referred to as “active component”), a vehicle (carboxymethyl cellulose) and the active component were orally administered to mice, and FS was applied to each mouse 6 hours later. On the next day, the mouse was returned to the same cage to compare the freeze time. […]
Six hours before FS, lonafarnib (40 mg/kg) or tipifarnib (40 mg/kg) was orally administered to the Tsc2^+/− mice, and contextual fear memory was investigated (FIG. 1a). On the next day, the mice were returned to the box in which the FS was applied, and the freeze time was measured.

Experiment [2] deals with mice to which pentylenetetrazol was administered. The experiment can be described thus: Contextual fear discrimination test in pentylenetetrazol-treated mice (epilepsy-induced memory impairment). The settings on record: mice given pentylenetetrazol 10 times; single administration 40 mg/kg, i.p.
In experiment [3] the test system is GFAP-Cre; Tsc1^fl/fl (GFAP-Tsc1 cKO) mice. The experiment can be described thus: Three-chamber test in GFAP-Tsc1 cKO mice (abnormality of social behavior). The settings on record: single oral administration (40 mg/kg). How it is done: By a three-chamber test, social interaction was investigated. This was carried out using an experiment device having three separated chambers between which a mouse can move freely. First, a cage containing a mouse (stranger 1 mouse) was placed in one chamber, and an empty cage was placed in another chamber (FIG. 2a). The subject mouse was placed in the middle chamber, and the length of time when the mouse stayed in each chamber (the chamber staying time in the figure, expressed in (s): seconds) was measured. Subsequently, the mouse (stranger 1 mouse) in the first cage was transferred to the empty cage, and another mouse (stranger 2 mouse) was placed in the cage that became empty (FIG. 2a). Thereafter, the length of time when the subject mouse stayed in the chamber of the first mouse (stranger 1 chamber) and the length of time when the subject mouse stayed in the chamber where the new mouse was staying (stranger 2 chamber) were measured and compared.
These mice were obtained by crossing of GFAP-Cre mice, which show astrocyte-specific Cre expression.
A suspension of 4 mg/ml lonafarnib or tipifarnib (using 1 w/v % CMC, 0.9 w/v % NaCl, and 5 v/v % DMSO as a vehicle) was prepared and orally administered at 40 mg/kg. A solution of 2 mg/ml pentylenetetrazol (PTZ) (using 0.9 w/v % NaCl as a vehicle) was prepared and intraperitoneally administered. […]

In the case of `NC(=O)N1CCC(CC(=O)N2CCC([C@H]3c4ncc(Br)cc4CCc4cc(Cl)cc(Br)c43)CC2)CC1` [lonafarnib], in experiment [1], the “staying time in the chamber of the stranger 2 (time spent in chamber)” value was “significantly longer”. Also, the “freeze time (contextual fear memory)” value in the experiment on Tsc2^+/− mice is recorded as “increases in the freeze behavior”. For the same compound, the “contextual fear memory (freeze time), pentylenetetrazol-induced memory impairment” value in experiment [2] is “pentylenetetrazol-induced memory impairment could also be improved”. Further, the “staying time in the chamber of the stranger 2” value in experiment [3] is “significantly longer”.

For the compound `Cn1cncc1[C@@](N)(c1ccc(Cl)cc1)c1ccc2c(c1)c(-c1cccc(Cl)c1)cc(=O)n2C` [tipifarnib, 6-[(R)-amino(4-chlorophenyl)(1-methyl-1H-imidazol-5-yl)methyl]-4-(3-chlorophenyl)-1-methyl-2(1H)-quinolinone], in the experiment on Tsc2^+/− mice, the “freeze time (contextual fear memory)” value is “increases in the freeze behavior”.
